Measurements as given in patent US20250154198A1, “PEPTIDE INHIBITORS OF INTERLEUKIN-23 RECEPTOR” (Zealand Pharma A/S, priority 2021, published 2025).
Read-outs that look alike come from different tables or passages of the source. *1 amine or outer side, *2 acyl side, *3 side chain or, on linkers, in order; H or OH if unused. Where a SMILES comes first, the peptide text is derived from it. Bridges are numbered along the chain shown (N, C = ends). [ ]: non-standard residue; d: D form. αMeAla(3-pyridyl) = C[C@](N)(Cc1cccnc1)C(=O)O; X10 = C[C@@](Cc1ccc(F)cc1)(N[*:1])C(=O)[*:2]; Phe(3,4-Me2) = Cc1ccc(C[C@H](N)C(=O)O)cc1C; Phe(4-Cl) = N[C@@H](Cc1ccc(Cl)cc1)C(=O)O; 2Nal = N[C@@H](Cc1ccc2ccccc2c1)C(=O)O; AEF = NCCOc1ccc(C[C@H](N)C(=O)O)cc1; X1 = O=C(Cc1ccc(CN[*:1])cc1)[*:2]; αMeR = C[C@](N)(CCCNC(=N)N)C(=O)O; αMeL = CC(C)C[C@](C)(N)C(=O)O; CH2COCH2 = O=C(C[*:1])C[*:2]; αMeV = CC(C)[C@](C)(N)C(=O)O; 3Amb = NCc1cccc(C(=O)O)c1; Dab = NCC[C@H](N)C(=O)O

Key:
[1] = Peptide stability in simulated intestinal fluid (SIF); type: in vitro ADME; conditions: pig, simulated intestinal fluid (SIF) with porcine pancreatin, Table 3-2, porcine pancreatin, pH 6.8, 37° C., 10 μM; for remaining at 4 h, 10 μM: read-out: SIF (% remaining 4 h); for remaining at 1 h, 10 μM: read-out: SIF (% remaining 1 h)
How it was run: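 Peptides incubated at 37°C with gentle shaking in SGF (NaCl, HCl, pH 1.2) or SIF (phosphate pH 6.8 with 10 g/L porcine pancreatin). Samples analysed by LC-HRMS; percent remaining at each timepoint calculated from absolute peak areas relative to time zero.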

[2] = Peptide stability in simulated gastric fluid (SGF); type: in vitro ADME; conditions: Table 3-3, porcine pepsin, pH 1.2, 37° C., 10 μM; for remaining at 4 h, 10 μM / remaining at 1 h, 10 μM: pig, simulated gastric fluid (SGF) with porcine pepsin; for remaining at 4 h, 10 μM: read-out: SGF (% remaining 4 h); for remaining at 1 h, 10 μM: read-out: SGF (% remaining 1 h)
Description: Determination of Peptide Stability in Simulated Gastric Fluid (SGF) and Simulated Intestinal Fluid (SIF)
SGF was prepared by dissolving sodium chloride (0.2 g) in 50 mL of water. A volume of 0.7 mL of 10 M HCl was added to adjust the pH of the solution to 1.2 and the volume made up to 100 mL with water. […] SIF was prepared by dissolving monobasic potassium phosphate (0.68 g) in 50 mL of water and adjusting the pH to 6.8 with 1 M NaOH. The volume was subsequently made up to 100 mL with water. 200 mg porcine pancreatin (P1625, Sigma Aldrich) was gently dissolved into 20 mL preheated (37° C.) solution (10 g/L) immediately prior to the incubation.
The incubation was performed at 37° C. with gentle shaking. […] After the last timepoint, the sampling plate was mixed for 10 min on a shaking table and centrifuged 10 min at 2200 g. 70 μL resulting supernatant was diluted with 150 μL water, mixed and centrifugated before analysis by liquid chromatography high resolution mass spectrometry. […] Percent remaining at each timepoint was calculated relative to timepoint zero based on absolute peak areas.

human IL-23R = molecular target: T1, human IL-23R (Homo sapiens, UniProt Q5VWK5); assay: Binding assay (NanoBRET displacement of fluorophore-labelled reference compound) for estimating binding affinity to human IL-23R
T1 construct: UniProtKB—Q5VWK5, amino acids 22-629; secretion signal of the plasmid (Promega N1371); expressed in transfected cells
T1 sequence (Q5VWK5 22-629): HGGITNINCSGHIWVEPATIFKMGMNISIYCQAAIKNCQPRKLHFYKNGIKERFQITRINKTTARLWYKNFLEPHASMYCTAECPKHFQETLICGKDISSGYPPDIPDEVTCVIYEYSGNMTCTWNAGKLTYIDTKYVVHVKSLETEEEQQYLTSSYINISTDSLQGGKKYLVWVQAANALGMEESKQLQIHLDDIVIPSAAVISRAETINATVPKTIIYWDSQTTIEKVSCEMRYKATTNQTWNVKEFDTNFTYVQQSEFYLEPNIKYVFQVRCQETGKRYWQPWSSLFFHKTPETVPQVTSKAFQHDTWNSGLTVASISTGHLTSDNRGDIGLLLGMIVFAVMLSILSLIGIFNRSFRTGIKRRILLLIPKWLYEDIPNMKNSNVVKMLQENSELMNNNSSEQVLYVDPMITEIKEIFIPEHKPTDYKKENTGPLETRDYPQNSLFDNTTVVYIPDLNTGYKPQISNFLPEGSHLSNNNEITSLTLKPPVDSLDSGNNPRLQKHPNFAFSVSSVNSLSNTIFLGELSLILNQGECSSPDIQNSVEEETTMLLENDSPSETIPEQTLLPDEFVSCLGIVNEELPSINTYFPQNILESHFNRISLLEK

[3] = molecular target: IL-23 mediated phospho-STAT3 formation in DB cells (Homo sapiens, UniProt Q5VWK5); assay: Functional inhibition of IL-23 mediated STAT3 signalling (phospho-STAT3 Tyr705 MSD) in DB cells; type: cell-based; conditions: DB cells, read-out: IC50 (pSTAT3)
How it was run: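 DB cells preincubated 15 min with compound at 37° C, then stimulated 90 min with hIL-23 at EC80. Lysate phospho-STAT3 measured by MSD, normalized to IL-23-alone and buffer wells; IC50 and maximal % inhibition from 4PL fit.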

[4] = Table 3-1, read-out: Ki hIL-23R

SMILES	remaining at 4 h, 10 μM [1]	remaining at 4 h, 10 μM ([2]; 4 h)	remaining at 1 h, 10 μM [2]	Ki (human IL-23R; [4])	also measured
CC[C@H](C)[C@@H]1NC(=O)Cc2ccc(cc2)CNC(=O)CC[C@@H](C(=O)N[C@@H](CCN)C(=O)N[C@@](C)(Cc2cccnc2)C(N)=O)NC(=O)[C@](C)(C(C)C)NC(=O)[C@H](Cc2ccc(C)c(C)c2)NC(=O)[C@](C)(Cc2ccc(F)cc2)NC(=O)[C@@H]2CCNC(=O)CC[C@H](NC1=O)C(=O)N[C@@H](Cc1c[nH]c3ccccc13)C(=O)N[C@@H](CCC(N)=O)C(=O)N2 [Compound 169, [4-Aminomethyl-phenylacetyl](1c)*IE(2c)WQ[Dab](2c)[2-Me-F(4-F)][F(3,4-Me)][2-Me-Val]E(1c)[Dab][2-Me-3-(3-Pyridyl)-Ala]-[NH2]] ([X1]IEWQ[Dab][X10][Phe(3,4-Me2)][αMeV]E[Dab][αMeAla(3-pyridyl)]-NH2; lactam 3-6, N-10)	72%	–	–	–	SGF (% remaining 4 h) ([2]; 4 h): 121%
CC[C@H](C)[C@@H]1NC(=O)Cc2ccc(cc2)CNC(=O)CC[C@@H](C(=O)N[C@@H](CCN)C(=O)N[C@@](C)(Cc2cccnc2)C(N)=O)NC(=O)[C@](C)(C(C)C)NC(=O)[C@H](Cc2ccc(C)c(C)c2)NC(=O)[C@H](Cc2ccc(OCCN)cc2)NC(=O)[C@@H]2CCNC(=O)CC[C@H](NC1=O)C(=O)N[C@@H](Cc1c[nH]c3ccccc13)C(=O)N[C@@H](CCC(N)=O)C(=O)N2 [Compound 165, [4-Aminomethyl-phenylacetyl](1c)*IE(2c)WQ[Dab](2c)[Y(2-aminoethoxy)][F(3,4-Me)][2-Me-Val]E(1c)[Dab][2-Me-3-(3-Pyridyl)-Ala]-[NH2]] ([X1]IEWQ[Dab][AEF][Phe(3,4-Me2)][αMeV]E[Dab][αMeAla(3-pyridyl)]-NH2; lactam 3-6, N-10)	109%	109%	–	–	–
CC(=O)N[C@H]1CCSC[C@@H](C(=O)N[C@@H](Cc2ccc(OCCN)cc2)C(=O)N[C@@H](Cc2c[nH]c3ccccc23)C(=O)N[C@@](C)(CCCCN)C(=O)N[C@@H](CCC(=O)O)C(=O)N[C@@H](CC(N)=O)C(=O)NCC(N)=O)NC(=O)[C@H](CCC(N)=O)NC(=O)[C@H](Cc2c[nH]c3ccccc23)NC(=O)[C@H]([C@@H](C)O)NC(=O)[C@H](CCC(N)=O)NC1=O [Compound C, [Ac]-[Abu](16i)QTWQC(16i)[Y(2-aminoethoxy)]W[2-Me-Lys]ENG-[NH2], reference compound]	76%	–	100%	–	remaining at 1 h, 10 μM [1]: 92%
CC(=O)N[C@@H](CC(=O)O)C(=O)N[C@H]1CCC(=O)NCCCC[C@@H](C(=O)N[C@@H](CCC(=O)O)C(=O)N[C@@H](CC(N)=O)C(=O)NCC(N)=O)NC(=O)[C@](C)(CC(C)C)NC(=O)[C@H](Cc2ccc3ccccc3c2)NC(=O)[C@H](Cc2c[nH]c3ccccc23)NC(=O)[C@@H]2CSCC(=O)CSC[C@H](NC(=O)[C@H](CO)NC1=O)C(=O)N[C@@H](Cc1c[nH]c3ccccc13)C(=O)N[C@@H](CCC(N)=O)C(=O)N2 [Compound 58, [Ac]-DE(1c)SC(2a)WQC(2a)W[2-Nal][2-Me-Leu]K(1c)ENG-[NH2]] (Ac-DESCWQCW[2Nal][αMeL]KENG-NH2; lactam 2-11; linker 4-7 via CH2COCH2)	45%	8%	61%	–	remaining at 1 h, 10 μM [1]: 80%
CC[C@H](C)[C@@H]1NC(=O)Cc2ccc(cc2)CNC(=O)CC[C@@H](C(=O)N[C@@H](CCN)C(=O)N[C@@](C)(Cc2cccnc2)C(N)=O)NC(=O)[C@](C)(C(C)C)NC(=O)[C@H](Cc2ccc(C)c(C)c2)NC(=O)[C@H](Cc2ccc(Cl)cc2)NC(=O)[C@@H]2CCNC(=O)CC[C@H](NC1=O)C(=O)N[C@@H](Cc1c[nH]c3ccccc13)C(=O)N[C@@H](CCC(N)=O)C(=O)N2 [Compound 171, [4-Aminomethyl-phenylacetyl](1c)*IE(2c)WQ[Dab](2c)[F(4-Cl)][F(3,4-Me)][2-Me-Val]E(1c)[Dab][2-Me-3-(3-Pyridyl)-Ala]-[NH2]] ([X1]IEWQ[Dab][Phe(4-Cl)][Phe(3,4-Me2)][αMeV]E[Dab][αMeAla(3-pyridyl)]-NH2; lactam 3-6, N-10)	68%	75%	–	–	–
CC(C)C[C@]1(C)NC(=O)[C@H](Cc2ccc3ccccc3c2)NC(=O)[C@H](Cc2ccc(OCCN)cc2)NC(=O)[C@@H]2CSCC(=O)CSC[C@H](NC(=O)[C@H](CO)NC(=O)c3cccc(c3)CNC(=O)CC[C@@H](C(=O)N[C@@](C)(CCCNC(=N)N)C(N)=O)NC1=O)C(=O)N[C@@H](Cc1c[nH]c3ccccc13)C(=O)N[C@@H](CCC(N)=O)C(=O)N2 [Compound 42, [(3-Aminomethyl)benzoyl](1c)*SC(2a)WQC(2a)[Y(2-aminoethoxy)][2-Nal][2-Me-Leu]E(1c)[2-Me-Arg]-[NH2]] ([3Amb]SCWQC[AEF][2Nal][αMeL]E[αMeR]-NH2; linker 3-6 via CH2COCH2; lactam N-10)	–	–	90%	2.76 nM	–
CC(=O)N[C@H]1CCC(=O)NCCCC[C@@H](C(=O)N[C@@H](CCCNC(=N)N)C(N)=O)NC(=O)[C@H](CC(C)C)NC(=O)[C@H](Cc2c[nH]c3ccccc23)NC(=O)[C@H](Cc2c[nH]c3ccccc23)NC(=O)[C@@H]2CSCC(=O)CSC[C@H](NC(=O)[C@H](CO)NC1=O)C(=O)N[C@@H](Cc1c[nH]c3ccccc13)C(=O)N[C@@H](CCC(N)=O)C(=O)N2 [Compound 10, [Ac]-E(1c)SC(2a)WQC(2a)WWLK(1c)R-[NH2]] (HELM PEPTIDE1{[ac].E.S.C.W.Q.C.W.W.L.K.R.[am]}|CHEM1{[O=C(C[*:1])C[*:2]]}$PEPTIDE1,PEPTIDE1,2:R3-11:R3|PEPTIDE1,CHEM1,4:R3-1:R1|PEPTIDE1,CHEM1,7:R3-1:R2$$$V2.0)	–	–	–	–	Ki (human IL-23R; Table 2-4b, read-out: Ki IL-23R): 101 nM; IC50 ([3]; Table 2-4b): 617 nM

Continued, in another order:

remaining at 4 h, 10 μM [1]	remaining at 4 h, 10 μM ([2]; 4 h)	remaining at 1 h, 10 μM [2]	Ki (human IL-23R; [4])	SMILES	also measured
–	–	–	> 1000 nM	CC(=O)N[C@@H](CC(=O)O)C(=O)N[C@H]1CCC(=O)NCCCC[C@@H](C(=O)N[C@@H](CCCNC(=N)N)C(N)=O)NC(=O)[C@H](CC(C)C)NC(=O)[C@H](Cc2c[nH]c3ccccc23)NC(=O)[C@H](Cc2c[nH]c3ccccc23)NC(=O)[C@@H]2CSCC(=O)CSC[C@H](NC(=O)[C@H](CO)NC1=O)C(=O)N[C@@H](C)C(=O)N[C@@H](CCC(N)=O)C(=O)N2 [Compound 13, [Ac]-DE(1c)SC(2a)AQC(2a)WWLK(1c)R-[NH2]] (HELM PEPTIDE1{[ac].D.E.S.C.A.Q.C.W.W.L.K.R.[am]}|CHEM1{[O=C(C[*:1])C[*:2]]}$PEPTIDE1,PEPTIDE1,3:R3-12:R3|PEPTIDE1,CHEM1,5:R3-1:R1|PEPTIDE1,CHEM1,8:R3-1:R2$$$V2.0)	IC50 ([3]; Table 3-1): > 1000 nM
–	–	–	> 1000 nM	CC(C)C[C@@H]1NC(=O)[C@H](Cc2c[nH]c3ccccc23)NC(=O)[C@H](Cc2c[nH]c3ccccc23)NC(=O)[C@@H]2CCCCNC(=O)CC[C@H](NC(=O)[C@H](CO)NC(=O)[C@@H](NC(=O)[C@@H](N)CC(=O)O)CSCC(=O)CSC[C@@H](C(=O)N[C@@H](CCCNC(=N)N)C(N)=O)NC1=O)C(=O)N[C@@H](Cc1c[nH]c3ccccc13)C(=O)N[C@@H](CCC(N)=O)C(=O)N2 [Compound 5, H-DC(1a)SE(2c)WQK(2c)WWLC(1a)R-[NH2]] (HELM PEPTIDE1{D.C.S.E.W.Q.K.W.W.L.C.R.[am]}|CHEM1{[O=C(C[*:1])C[*:2]]}$PEPTIDE1,CHEM1,2:R3-1:R1|PEPTIDE1,CHEM1,11:R3-1:R2|PEPTIDE1,PEPTIDE1,4:R3-7:R3$$$V2.0)	IC50 ([3]; Table 3-1): > 1000 nM
